From ChEMBL document CHEMBL4138146, “A Schmidt rearrangement-mediated synthesis of novel tetrahydro-benzo[1,4]diazepin-5-ones as potential anticancer and antiprotozoal agents” (Eur J Med Chem, 2017)

Columns and labels:
Assay type in all cases: functional
NCI-H322M = test: Growth inhibition of human NCI-H322M cells assessed as cell growth at 10^-4 M incubated for 48 hrs by sulforhodamine B assay relative to control; details: read-out: Activity
SK-OV-3 [1] = test: Growth inhibition of human SKOV3 cells assessed as cell growth at 10^-6 M incubated for 48 hrs by sulforhodamine B assay relative to control; details: SK-OV-3, 48 h, read-out: Activity
SF-539 = test: Growth inhibition of human SF539 cells assessed as cell growth at 10^-7 M incubated for 48 hrs by sulforhodamine B assay relative to control; details: SF-539, 48 h, read-out: Activity
IGROV-1 = test: Growth inhibition of human IGROV1 cells assessed as cell growth at 10^-4 M incubated for 48 hrs by sulforhodamine B assay relative to control; details: IGROV-1, 48 h, read-out: Activity
MOLT-4 = test: Growth inhibition of human MOLT4 cells assessed as cell growth at 10^-7 M incubated for 48 hrs by sulforhodamine B assay relative to control; details: MOLT-4, 48 h, read-out: Activity
Hs-578T = test: Growth inhibition of human Hs 578T cells assessed as cell growth at 10^-6 M incubated for 48 hrs by sulforhodamine B assay relative to control; details: read-out: Activity
786-0 [2] = test: Growth inhibition of human 786-0 cells assessed as cell growth at 10^-8 M incubated for 48 hrs by sulforhodamine B assay relative to control; details: 786-0, 48 h, read-out: Activity
HCC 2998 [3] = test: Growth inhibition of human HCC2998 cells assessed as cell growth at 10^-4 M incubated for 48 hrs by sulforhodamine B assay relative to control; details: HCC 2998, 48 h, read-out: Activity
T47D [4] = test: Growth inhibition of human T47D cells assessed as cell growth at 10^-8 M incubated for 48 hrs by sulforhodamine B assay relative to control; details: read-out: Activity
HCC 2998 [5] = test: Growth inhibition of human HCC2998 cells assessed as cell growth at 10^-7 M incubated for 48 hrs by sulforhodamine B assay relative to control; details: HCC 2998, 48 h, read-out: Activity
HCT-116 [6] = test: Growth inhibition of human HCT116 cells assessed as cell growth at 10^-5 M incubated for 48 hrs by sulforhodamine B assay relative to control; details: HCT-116, 48 h, read-out: Activity
NCI-H460 = test: Growth inhibition of human NCI-H460 cells assessed as cell growth at 10^-4 M incubated for 48 hrs by sulforhodamine B assay relative to control; details: NCI-H460, 48 h, read-out: Activity
786-0 [7] = test: Growth inhibition of human 786-0 cells assessed as cell growth at 10^-6 M incubated for 48 hrs by sulforhodamine B assay relative to control; details: 786-0, 48 h, read-out: Activity
CAKI-1 = test: Growth inhibition of human Caki1 cells assessed as cell growth at 10^-8 M incubated for 48 hrs by sulforhodamine B assay relative to control; details: CAKI-1, 48 h, read-out: Activity
A549 = test: Growth inhibition of human A549/ATCC cells assessed as cell growth at 10^-4 M incubated for 48 hrs by sulforhodamine B assay relative to control; details: A549, 48 h, read-out: Activity
K562 [8] = test: Growth inhibition of human K562 cells assessed as cell growth at 10^-6 M incubated for 48 hrs by sulforhodamine B assay relative to control; details: K562, 48 h, read-out: Activity
RPMI-8226 = test: Growth inhibition of human RPMI8226 cells assessed as cell growth at 10^-8 M incubated for 48 hrs by sulforhodamine B assay relative to control; details: RPMI-8226, 48 h, read-out: Activity
BT-549 [9] = test: Growth inhibition of human BT549 cells assessed as cell growth at 10^-4 M incubated for 48 hrs by sulforhodamine B assay relative to control; details: BT-549, 48 h, read-out: Activity
SN12C = test: Growth inhibition of human SN12C cells assessed as cell growth at 10^-5 M incubated for 48 hrs by sulforhodamine B assay relative to control; details: read-out: Activity
K562 [10] = test: Growth inhibition of human K562 cells assessed as cell growth at 10^-7 M incubated for 48 hrs by sulforhodamine B assay relative to control; details: K562, 48 h, read-out: Activity
LOX IMVI = test: Growth inhibition of human LOXIMVI cells assessed as cell growth at 10^-7 M incubated for 48 hrs by sulforhodamine B assay relative to control; details: read-out: Activity
T47D [11] = test: Growth inhibition of human T47D cells assessed as cell growth at 10^-7 M incubated for 48 hrs by sulforhodamine B assay relative to control; details: read-out: Activity
K562 [12] = test: Growth inhibition of human K562 cells assessed as cell growth at 10^-5 M incubated for 48 hrs by sulforhodamine B assay relative to control; details: K562, 48 h, read-out: Activity
NCI-H522 = test: Growth inhibition of human NCI-H522 cells assessed as cell growth at 10^-6 M incubated for 48 hrs by sulforhodamine B assay relative to control; details: NCI-H522, 48 h, read-out: Activity
ACHN = test: Growth inhibition of human ACHN cells assessed as cell growth at 10^-7 M incubated for 48 hrs by sulforhodamine B assay relative to control; details: read-out: Activity
UO-31 = test: Growth inhibition of human UO31 cells assessed as cell growth at 10^-7 M incubated for 48 hrs by sulforhodamine B assay relative to control; details: UO-31, 48 h, read-out: Activity
HL-60(TB) = test: Growth inhibition of human HL-60(TB) cells assessed as cell growth at 10^-5 M incubated for 48 hrs by sulforhodamine B assay relative to control; details: HL-60, 48 h, read-out: Activity
HCT-116 [13] = test: Growth inhibition of human HCT116 cells assessed as cell growth at 10^-6 M incubated for 48 hrs by sulforhodamine B assay relative to control; details: HCT-116, 48 h, read-out: Activity
BT-549 [14] = test: Growth inhibition of human BT549 cells assessed as cell growth at 10^-5 M incubated for 48 hrs by sulforhodamine B assay relative to control; details: BT-549, 48 h, read-out: Activity
SK-OV-3 [15] = test: Growth inhibition of human SKOV3 cells assessed as cell growth at 10^-7 M incubated for 48 hrs by sulforhodamine B assay relative to control; details: SK-OV-3, 48 h, read-out: Activity
HT-29 [16] = test: Growth inhibition of human HT-29 cells assessed as cell growth at 10^-5 M incubated for 48 hrs by sulforhodamine B assay relative to control; details: HT-29, 48 h, read-out: Activity
OVCAR-8 = test: Growth inhibition of human OVCAR8 cells assessed as cell growth at 10^-8 M incubated for 48 hrs by sulforhodamine B assay relative to control; details: OVCAR-8, 48 h, read-out: Activity
HT-29 [17] = test: Growth inhibition of human HT-29 cells assessed as cell growth at 10^-6 M incubated for 48 hrs by sulforhodamine B assay relative to control; details: HT-29, 48 h, read-out: Activity
MDA-MB-231 = test: Growth inhibition of human MDA-MB-231 cells assessed as cell growth at 10^-7 M incubated for 48 hrs by sulforhodamine B assay relative to control; details: MDA-MB-231, 48 h, read-out: Activity
DU-145 = test: Growth inhibition of human DU145 cells assessed as cell growth at 10^-4 M incubated for 48 hrs by sulforhodamine B assay relative to control; details: DU-145, 48 h, read-out: Activity

How did the growth at 100 µM (NCI-H322M) turn out when `CCCCOc1nc2ccccc2cc1C1CNC(=O)c2ccccc2N1` (stereo not given) was run?
The growth at 100 µM was -16%.

And the growth at 1 µM (SK-OV-3 [1])?
Its growth at 1 µM is 80%.

What about the growth at 0.1 µM (SF-539) of the same compound?
Its growth at 0.1 µM is 93%.

And the growth at 100 µM (IGROV-1)?
Its growth at 100 µM is -51%.

And the growth at 0.1 µM (MOLT-4)?
The growth at 0.1 µM was 94%.

And the growth at 1 µM (Hs-578T)?
Its growth at 1 µM is 73%.

And the growth at 0.01 µM (786-0 [2])?
The growth at 0.01 µM was 99%.

What about the growth at 100 µM (HCC 2998 [3]) of the same compound?
Its growth at 100 µM is -20%.

And the growth at 0.01 µM (T47D [4])?
Its growth at 0.01 µM is 86%.

What about the growth at 0.1 µM (HCC 2998 [5]) of the same compound?
The growth at 0.1 µM was 93%.

What about the growth at 10 µM (HCT-116 [6]) of the same compound?
The growth at 10 µM was -19%.

What about the growth at 100 µM (NCI-H460) of the same compound?
The growth at 100 µM was -73%.

And the growth at 1 µM (786-0 [7])?
The growth at 1 µM was 90%.

And the growth at 0.01 µM (CAKI-1)?
Its growth at 0.01 µM is 83%.

What about the growth at 100 µM (A549) of the same compound?
Its growth at 100 µM is -75%.

What about the growth at 1 µM (K562 [8]) of the same compound?
The growth at 1 µM was 46%.

And the growth at 0.01 µM (RPMI-8226)?
The growth at 0.01 µM was 95%.

And the growth at 100 µM (BT-549 [9])?
Its growth at 100 µM is -25%.

What about the growth at 10 µM (SN12C) of the same compound?
The growth at 10 µM was 19%.

What about the growth at 0.1 µM (K562 [10]) of the same compound?
The growth at 0.1 µM was 95%.

And the growth at 0.1 µM (LOX IMVI)?
The growth at 0.1 µM was 93%.

And the growth at 0.1 µM (T47D [11])?
The growth at 0.1 µM was 99%.

And the growth at 10 µM (K562 [12])?
The growth at 10 µM was 7%.

What about the growth at 1 µM (NCI-H522) of the same compound?
The growth at 1 µM was 65%.

And the growth at 0.1 µM (ACHN)?
Its growth at 0.1 µM is 98%.

And the growth at 0.1 µM (UO-31)?
Its growth at 0.1 µM is 86%.

And the growth at 10 µM (HL-60(TB))?
Its growth at 10 µM is -28%.

And the growth at 1 µM (HCT-116 [13])?
The growth at 1 µM was 75%.

And the growth at 10 µM (BT-549 [14])?
The growth at 10 µM was 36%.

What about the growth at 0.1 µM (SK-OV-3 [15]) of the same compound?
Its growth at 0.1 µM is 98%.

And the growth at 10 µM (HT-29 [16])?
Its growth at 10 µM is 3%.

What about the growth at 0.01 µM (OVCAR-8) of the same compound?
The growth at 0.01 µM was 100%.

What about the growth at 1 µM (HT-29 [17]) of the same compound?
The growth at 1 µM was 98%.

What about the growth at 0.1 µM (MDA-MB-231) of the same compound?
Its growth at 0.1 µM is 96%.

What about the growth at 100 µM (DU-145) of the same compound?
The growth at 100 µM was -43%.
